7 compounds from ChEMBL document CHEMBL1140507, “Synthesis and evaluation of N-acylsulfonamide and N-acylsulfonylurea prodrugs of a prostacyclin receptor agonist” (Bioorg Med Chem, 2007) can be followed below.

A short description of series [1]: Hydrolytic rate in cynomolgus monkey hepatic microsomes assessed as 2-(4-((5,6-diphenylpyrazin-2-yl)(isopropyl)amino)butoxy)acetic acid production per mg of protein at 10 uM. In kind it is ADME, Macaca fascicularis, Liver.
Series [2] has as its system Liver microsomes. Nature of the series: Hydrolytic rate in human hepatic microsomes assessed as 2-(4-((5,6-diphenylpyrazin-2-yl)(isopropyl)amino)butoxy)acetic acid production per mg of protein at 10 uM. The series is classed as ADME, Microsome.
Series [3] has as its system Cynomolgus monkey. Nature of the series: AUC (0 to 24 hrs) in cynomolgus monkey assessed as 2-(4-((5,6-diphenylpyrazin-2-yl)(isopropyl)amino)butoxy)acetic acid at 1 mg/kg, po. The series is classed as ADME, organism-based, Macaca fascicularis, Plasma. Details: time < 24 hr, dose 1 mg/kg, route oral. The conditions noted are these: in vivo.
For series [4], the system named is Cynomolgus monkey. The experiment in a line: Half life in cynomolgus monkey assessed as 2-(4-((5,6-diphenylpyrazin-2-yl)(isopropyl)amino)butoxy)acetic acid at 1 mg/kg, po. Set-up: dose 1 mg/kg, route oral. The conditions noted are these: in vivo. The series is classed as ADME, organism-based, Macaca fascicularis.
For series [5], the system named is Cynomolgus monkey. The experiment in a line: Tmax in cynomolgus monkey assessed as 2-(4-((5,6-diphenylpyrazin-2-yl)(isopropyl)amino)butoxy)acetic acid level at 1 mg/kg, po. The series is classed as ADME, organism-based, Macaca fascicularis. The conditions noted are these: in vivo. Set-up: dose 1 mg/kg, route oral.
The subject of series [6] is Cynomolgus monkey. Nature of the series: Cmax in cynomolgus monkey assessed as 2-(4-((5,6-diphenylpyrazin-2-yl)(isopropyl)amino)butoxy)acetic acid level at 1 mg/kg, po. The series is classed as ADME, organism-based, Macaca fascicularis. Details: dose 1 mg/kg, route oral. Particulars: in vivo.
The nature of series [7]: Hydrolytic rate in cynomolgus monkey hepatic microsomes assessed as 2-(4-((5,6-diphenylpyrazin-2-yl)(isopropyl)amino)butoxy)acetic acid production in presence of 1000 uM PMSF relative to control. The series is classed as ADME, Macaca fascicularis, Liver. Set-up: scale not given: the % may be the effect or the level left.
Series [8] concerns Liver microsomes. Nature of the series: Hydrolytic rate in Sprague-Dawley rat hepatic microsomes assessed as 2-(4-((5,6-diphenylpyrazin-2-yl)(isopropyl)amino)butoxy)acetic acid production per mg of protein at 10 uM. In kind it is ADME, Microsome.
Series [9] can be described thus: Hydrolytic rate in Beagle dog hepatic microsomes assessed as 2-(4-((5,6-diphenylpyrazin-2-yl)(isopropyl)amino)butoxy)acetic acid production per mg of protein at 10 uM. In kind it is ADME, Canis lupus familiaris, Liver.
Series [10] is described as follows: Hydrolytic rate in cynomolgus monkey hepatic microsomes assessed as 2-(4-((5,6-diphenylpyrazin-2-yl)(isopropyl)amino)butoxy)acetic acid production in presence of 100 uM PMSF relative to control. In kind it is ADME, Macaca fascicularis, Liver. Set-up: scale not given: the % may be the effect or the level left.
A short description of series [11]: Hydrolytic rate in cynomolgus monkey hepatic microsomes assessed as 2-(4-((5,6-diphenylpyrazin-2-yl)(isopropyl)amino)butoxy)acetic acid production in presence of 10 uM PMSF relative to control. Details: scale not given: the % may be the effect or the level left. The series is classed as ADME, Macaca fascicularis, Liver.
A further series has as its system Plasma. Nature of the series: Hydrolytic rate in Sprague-Dawley rat plasma assessed as 2-(4-((5,6-diphenylpyrazin-2-yl)(isopropyl)amino)butoxy)acetic acid production per mg of protein at 10 uM. The series is classed as ADME, cell-free.

For `CC(C)N(CCCCOCC(=O)NS(=O)(=O)c1ccccc1)c1cnc(-c2ccccc2)c(-c2ccccc2)n1`, the Activity in [1] is 0.711 nmol/min; with Liver microsomes [2] it was 0.017 nmol/min.

`CC(C)N(CCCCOCC(=O)NS(=O)(=O)C(C)C)c1cnc(-c2ccccc2)c(-c2ccccc2)n1`: the AUC in the series on Cynomolgus monkey [3] came to 170 ng·h/mL. The t1/2 in the series on Cynomolgus monkey [4] came out at 14.5 h. Also, in the series on Cynomolgus monkey [5], the Tmax came to 10 h. Further, the Activity was found to be 0.152 nmol/min in series [1] and 0.012 nmol/min with Liver microsomes [2]. Moreover, the Cmax with Cynomolgus monkey [6] was determined as 13 ng/mL.

`CC(C)N(CCCCOCC(=O)NS(N)(=O)=O)c1cnc(-c2ccccc2)c(-c2ccccc2)n1`: the AUC in the series with Cynomolgus monkey [3] is 374 ng·h/mL. Further, in the series on Cynomolgus monkey [5], the Tmax was found to be 6 h. Besides, the Activity in series [1] was 0.112 nmol/min; in the series with Liver microsomes [2] it was 0.03 nmol/min. Also, in the series on Cynomolgus monkey [6], the Cmax came out at 20 ng/mL.

For `CC(C)N(CCCCOCC(=O)NS(=O)(=O)N1CCOCC1)c1cnc(-c2ccccc2)c(-c2ccccc2)n1`, the Activity in series [1] is given as 0.208 nmol/min; in the series with Liver microsomes [2], 0.015 nmol/min.

For `CC(C)N(CCCCOCC(=O)NS(=O)(=O)C(F)(F)F)c1cnc(-c2ccccc2)c(-c2ccccc2)n1`, the AUC with Cynomolgus monkey [3] was 308 ng·h/mL. In addition, the t1/2 in the series on Cynomolgus monkey [4] is 8.5 h. In the series with Cynomolgus monkey [5], the Tmax is 4 h. The Activity in [1] is listed as 0.06 nmol/min; in the series on Liver microsomes [2], 0.024 nmol/min. Moreover, the Cmax in the series with Cynomolgus monkey [6] came out at 31 ng/mL.

`CC(C)N(CCCCOCC(=O)NS(=O)(=O)c1cccs1)c1cnc(-c2ccccc2)c(-c2ccccc2)n1`: the Activity in [1] stood at 0.468 nmol/min; with Liver microsomes [2], 0.008 nmol/min.

With `CC(C)N(CCCCOCC(=O)NS(C)(=O)=O)c1cnc(-c2ccccc2)c(-c2ccccc2)n1` [SELEXIPAG], in the series with Cynomolgus monkey [3], the AUC is 859 ng·h/mL. Moreover, the t1/2 in the series on Cynomolgus monkey [4] stood at 10.7 h. The Tmax in the series on Cynomolgus monkey [5] was found to be 14 h. Besides, the Activity was 0% in [7]; 0.057 nmol/min in series [1]; 0.09 nmol/min with Liver microsomes [8]; 0.03 nmol/min in series [9]; 0% in series [10]; 0.019 nmol/min with Liver microsomes [2]. Besides, the Activity in series [11] is 21.4%; in the series with Plasma, 0.5 nmol/min. Besides, the Cmax with Cynomolgus monkey [6] was 35 ng/mL.
